Experimental data from PMC5234717 (Journal of Lipid Research, 2016).

Experiments:
S1PL2021 [1] = target: T1, S1PL2021 (Burkholderia pseudomallei, UniProt Q63IP8)
T1 construct: gene BPSS2021

S1PL2021 [2] = target: T1, S1PL2021; remark: listed apart in the source

T1 sequence (Q63IP8 21-493 limits assumed): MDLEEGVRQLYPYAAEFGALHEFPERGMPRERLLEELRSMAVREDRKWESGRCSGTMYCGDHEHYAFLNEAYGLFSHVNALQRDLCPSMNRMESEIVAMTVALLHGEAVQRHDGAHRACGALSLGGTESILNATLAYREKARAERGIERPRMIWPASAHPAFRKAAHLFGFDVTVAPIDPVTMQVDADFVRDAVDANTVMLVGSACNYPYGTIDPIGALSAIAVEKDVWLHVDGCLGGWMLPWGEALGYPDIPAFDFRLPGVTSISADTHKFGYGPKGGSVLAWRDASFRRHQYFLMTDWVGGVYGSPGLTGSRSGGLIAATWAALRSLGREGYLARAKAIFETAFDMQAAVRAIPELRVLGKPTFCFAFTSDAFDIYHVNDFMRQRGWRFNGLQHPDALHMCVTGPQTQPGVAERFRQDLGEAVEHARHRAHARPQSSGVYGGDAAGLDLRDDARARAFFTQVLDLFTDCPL

| SMILES | UV-vis spectroscopy of PLP (S1PL2021 [1]) | X-ray crystal structure, 2.1 Å (S1PL2021 [2]) |
| --- | --- | --- |
| CCCCCCCCCCCCC/C=C/[C@@H](O)[C@@H](N)CO [D-erythro sphingosine] | S1PL2021 could also bind the nonphosphorylated substrate, D-erythro sphingosine |  |
| Cc1ncc(COP(=O)(O)O)c(C=O)c1O [PLP] |  | dimer of S1PL with the PLP cofactor present as an internal aldimine with residue K271 |
